This note sets out measurements from PubChem BioAssay (NCI).

SMILES strings stand for the structures. “And” between values parts separate entries of the source, which are not always exact repeats. Equal entries are not always repeated.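 Values below derive from 48-hour exposures of cells grown in 96-well plates, with endpoints linearly interpolated between the two concentrations bracketing the appropriate inhibition level. GI50: concentration for 50% inhibition of growth. At the TGI there is no net growth.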 A value given as a limit tells only on which side of the number the result lay.

Among the test systems are UO-31 renal; OVCAR-4 ovarian; SK-OV-3 ovarian; IGROV1 ovarian; T-47D breast; PC-3 prostate; OVCAR-5 ovarian; SW-620 colon.
Experiment in all cases: growth of human tumour cells (NCI), 48 h

Turning to `COc1ncnc2c1ncn2C/C(Br)=C(\Br)CCl`, the GI50 with UO-31 renal was 2.41 µM; with OVCAR-4 ovarian, 1.61 µM; in the experiment on SK-OV-3 ovarian, 14.8 µM; in the experiment on IGROV1 ovarian, 1.77 µM; with T-47D breast, 2.37 µM; with PC-3 prostate it was 9.12 µM. Moreover, the GI50 with OVCAR-5 ovarian was 3.83 µM. In addition, the TGI was determined as 10.6 µM with UO-31 renal; 3.02 µM in the experiment with OVCAR-4 ovarian; 28 µM in the experiment with SK-OV-3 ovarian; 4.86 µM in the experiment on IGROV1 ovarian; 6.84 µM in the experiment on T-47D breast; 23.3 µM in the experiment with PC-3 prostate. The same compound showed a TGI in the experiment on OVCAR-5 ovarian of 15.2 µM.
Consider `O=c1cc(-c2ccccc2)oc2cc(OCc3cn(Cc4ccc(F)cc4)nn3)cc(O)c12`, for which the GI50 is 6.57 µM with SK-OV-3 ovarian, 17.6 µM in the experiment with IGROV1 ovarian, above 100 µM with OVCAR-5 ovarian and above 100 µM in the experiment with SW-620 colon. Further, the TGI in the experiment with SK-OV-3 ovarian, in the experiment with IGROV1 ovarian, with OVCAR-5 ovarian and with SW-620 colon was above 100 µM each time.
Consider `COc1ccc(CNCCCN2C(=O)c3ccc4c5c(ccc(c35)C2=O)C(=O)N(CCCNCCCCNCCCN)C4=O)c(OC)c1OC`, for which the GI50 was 4.84 µM with UO-31 renal; 1.02 µM in the experiment on OVCAR-4 ovarian; 3.18 µM with SK-OV-3 ovarian; 1.54 µM in the experiment with IGROV1 ovarian; 0.335 µM in the experiment on T-47D breast; 2.4 µM in the experiment on PC-3 prostate. Besides, in the experiment with SW-620 colon, the GI50 is 0.448 µM. Besides, the TGI is above 100 µM with UO-31 renal; 3.08 µM in the experiment with OVCAR-4 ovarian; 83.2 µM in the experiment on SK-OV-3 ovarian; 12.5 µM in the experiment on IGROV1 ovarian; 1.88 µM in the experiment on T-47D breast; 26.3 µM with PC-3 prostate. This compound also gave a TGI with SW-620 colon of 2.52 µM.
Turning to `COc1cc2c(C#N)n3c(c2cc1OC)C(=O)C(c1ccccc1)Oc1ccccc1-3` (centres undefined), the GI50 with OVCAR-4 ovarian was 2.89 µM; in the experiment with SK-OV-3 ovarian it was 21.1 µM; in the experiment on IGROV1 ovarian, 7.41 µM. For the same compound, the TGI in the experiment on OVCAR-4 ovarian, in the experiment with SK-OV-3 ovarian and with IGROV1 ovarian was above 100 µM each time.
In the case of `CN1CCN(c2ccc(NC3=C(Cl)C(=O)c4ncccc4C3=O)cc2C(F)(F)F)CC1`, the GI50 with UO-31 renal was 1.5 µM; with OVCAR-4 ovarian, 1.09 µM; in the experiment on IGROV1 ovarian, 1.56 µM; in the experiment with T-47D breast, 1.33 µM; in the experiment with PC-3 prostate, 2.23 µM; with OVCAR-5 ovarian, 2.2 µM. Besides, the GI50 in the experiment with SW-620 colon is 1.35 µM. Moreover, the TGI in the experiment on UO-31 renal was 2.82 µM; in the experiment on OVCAR-4 ovarian it was 2.31 µM; in the experiment with IGROV1 ovarian it was 3.18 µM; in the experiment on T-47D breast, 5.31 µM; with PC-3 prostate, 6.85 µM; with OVCAR-5 ovarian, 5.14 µM. In addition, the TGI in the experiment on SW-620 colon stood at 3.37 µM.
On to `CCN(CC)CCNc1ccc(CO)c2sc3ccccc3c(=O)c12`, for which the GI50 in the experiment on UO-31 renal is 2.09 µM and 8.51 µM; in the experiment with OVCAR-4 ovarian, 2.49 µM and 7.63 µM; in the experiment with T-47D breast it was 4.84 µM; in the experiment with PC-3 prostate, 3.65 µM; with OVCAR-5 ovarian, 5.05 µM; in the experiment on SW-620 colon, 4.69 µM. Besides, the TGI was 20.9 µM [middle of 4 runs] in the experiment with UO-31 renal; 18.9 µM [middle of 4 runs] in the experiment with OVCAR-4 ovarian; 17.8 µM and 28.6 µM in the experiment with T-47D breast; 17.5 µM and 17.8 µM in the experiment with PC-3 prostate; 25.1 µM [middle of 4 runs] in the experiment on OVCAR-5 ovarian; 17.4 µM [middle of 4 runs] with SW-620 colon.
Consider `CN1CCN(c2ccc3nc(-c4ccc5nc(-c6ccc(C(F)(F)F)cc6)[nH]c5c4)[nH]c3c2)CC1`, for which the GI50 with UO-31 renal was 12.5 µM; in the experiment on OVCAR-4 ovarian, 1.74 µM; in the experiment with IGROV1 ovarian it was 6.13 µM; in the experiment with T-47D breast it was 1.38 µM; in the experiment with PC-3 prostate, 1.66 µM; in the experiment with OVCAR-5 ovarian, 2.68 µM. Also, in the experiment on SW-620 colon, the GI50 is 1.47 µM. Besides, the TGI with UO-31 renal is 28 µM; in the experiment with OVCAR-4 ovarian, 3.45 µM; in the experiment on IGROV1 ovarian it was 21.7 µM; in the experiment on T-47D breast, 3.33 µM; in the experiment on PC-3 prostate, 3.79 µM; with OVCAR-5 ovarian, 6.58 µM. The TGI in the experiment on SW-620 colon was determined as 3.09 µM.
As to `CC(C)NCCCNC1=C(Cl)C(=O)c2ccccc2C1=O`, the GI50 in the experiment with UO-31 renal is 14.4 µM; with SK-OV-3 ovarian it was 15.8 µM; in the experiment on IGROV1 ovarian, 2.33 µM; with T-47D breast it was 8.02 µM; with PC-3 prostate, 3.92 µM; in the experiment with OVCAR-5 ovarian, 14.3 µM. Moreover, the GI50 with SW-620 colon was 1.74 µM. Further, the TGI in the experiment on UO-31 renal amounted to 29.2 µM; in the experiment with SK-OV-3 ovarian, 29.4 µM; in the experiment with IGROV1 ovarian it was 5.16 µM; with T-47D breast it was 33.8 µM; in the experiment on PC-3 prostate it was 20.7 µM; with OVCAR-5 ovarian it was 31.1 µM. Besides, the TGI in the experiment on SW-620 colon is 3.37 µM.
Consider `C[C@]1(O)CC(=O)[C@]2(O)C3=C(C=C[C@]2(O)C1)C(=O)c1c(O)cccc1C3=O`, for which the GI50 with UO-31 renal was 1.23 µM; in the experiment on OVCAR-4 ovarian, 1.44 µM; with SK-OV-3 ovarian, 17.5 µM; in the experiment on T-47D breast it was 1.85 µM; in the experiment on PC-3 prostate it was 2.42 µM; with OVCAR-5 ovarian, 6.51 µM. The GI50 in the experiment on SW-620 colon is 1.2 µM. The TGI with UO-31 renal came to 2.52 µM; in the experiment with OVCAR-4 ovarian it was 2.79 µM; with SK-OV-3 ovarian, 42 µM; in the experiment with T-47D breast, 4.57 µM; in the experiment on PC-3 prostate, 10.1 µM; in the experiment with OVCAR-5 ovarian, 19.8 µM. Moreover, the TGI in the experiment with SW-620 colon was found to be 3.35 µM.
For the compound `Cc1cc(Cl)ccc1OCC(=O)Oc1c(Cl)c(Cl)c(Cl)c(Cl)c1Cl`, the TGI is 32 µM in the experiment with UO-31 renal; 92.1 µM with OVCAR-4 ovarian; 83.8 µM in the experiment on SK-OV-3 ovarian; 79.5 µM in the experiment with IGROV1 ovarian; 80.1 µM with PC-3 prostate; 59.2 µM with OVCAR-5 ovarian. Moreover, in the experiment on SW-620 colon, the TGI is above 100 µM.
`CC(=O)c1ccc(NCn2nc(-c3ccccc3O)oc2=S)cc1`: the GI50 in the experiment with UO-31 renal is above 100 µM; with IGROV1 ovarian it was above 100 µM; in the experiment on T-47D breast, 85.9 µM; with PC-3 prostate, 46.4 µM; with OVCAR-5 ovarian, above 100 µM; in the experiment on SW-620 colon it was 29.8 µM. Also, the TGI in the experiment with UO-31 renal, in the experiment on IGROV1 ovarian, in the experiment with T-47D breast, in the experiment on PC-3 prostate, in the experiment on OVCAR-5 ovarian and in the experiment with SW-620 colon was above 100 µM in each case.
